Structures are written as SMILES.

A short description of test [1]: Cytotoxicity against human HepG2(2.2.15) cells after 24 hrs by neutral red dye staining. The test is classed as functional. To be noted: HepG2 2.2.15, 24 h.
Test [2] deals with Hepatitis B virus. The test can be described thus: Antiviral activity against HBV infected in human HepG2(2.2.15) cells assessed as inhibition of HBV DNA replication. It is filed as functional, organism-based.
In test [3] the test system is Hepatitis B virus. Briefly: Antiviral activity against HBV infected in human HepG2(2.2.15) cells assessed as inhibition of HBV surface antigen at < TC50. It is filed as functional, organism-based.
The subject of test [4] is Hepatitis B virus. Briefly: Antiviral activity against HBV infected in human HepG2(2.2.15) cells assessed as inhibition of HBV surface antigen. The test is classed as functional, organism-based.
The nature of test [5]: Selectivity index, ratio of TC50 for human HepG2(2.2.15) cells to IC50 for inhibition of HBV surface antigen.
Test [6] can be described thus: Selectivity index, ratio of TC50 for human HepG2(2.2.15) cells to IC50 for inhibition of HBV DNA replication.
Setting [7] is: Hepatitis B virus, HepG2 2.2.15, read-out: IC50.

For the compound `COc1cc2nc3c(cc2c(CN2CCOCC2)c1O)CSc1c(C)cc(C)cc1-3`, the midpoint of cytotoxicity in test [1], the CC50, lay at 50.6 µM. The IC50 entry in the test on Hepatitis B virus [2] (hepg2 2.2.15) and with Hepatitis B virus [3] was “Not Active” in each case.

For the compound `CCN(CC)Cc1c(O)c(OC)cc2nc3c(cc12)CSc1ccccc1-3`, it took 39 µM to reach half-maximal cytotoxicity in test [1] (CC50). Besides, the IC50 entry in the test on Hepatitis B virus [2] (hepg2 2.2.15) and with Hepatitis B virus [3] was “Not Active” throughout.

With `COc1cc2nc3c(cc2c(CN(C)C)c1O)CSc1ccccc1-3`, the CC50 (usually the concentration that lowers cell viability or growth by half) in test [1] was found to be 36.5 µM. The IC50 (in general, the concentration needed to halve the response being measured) is 9.3 µM in the test with Hepatitis B virus [4] and “Not Active” in the test on Hepatitis B virus [2] (hepg2 2.2.15). Moreover, in test [5], the “Selectivity Index” value stood at 3.9.

The compound `COc1cc2nc3c(cc2c(CN2CCOCC2)c1O)CSc1cc(F)ccc1-3` gave a CC50 in test [1] of 28.8 µM. Further, the IC50 result in the test with Hepatitis B virus [2] (hepg2 2.2.15) and with Hepatitis B virus [3] was “Not Active” each time.

With `COc1cc2nc3c(cc2c(CN(C)C)c1O)CSc1ccc(C)cc1-3`, it took 67.3 µM to reach half-maximal cytotoxicity in test [1] (CC50). Also, the IC50 in the test on Hepatitis B virus [4] was 22.1 µM; with Hepatitis B virus [2] (hepg2 2.2.15), “Not Active”. The “Selectivity Index” value in test [5] is 3.

The compound `COc1cc2nc3c(cc2c(CN2CCN(C)CC2)c1O)CSc1cc(F)ccc1-3` showed a CC50 in test [1] of 13.5 µM. The concentration for half-maximal inhibition (IC50) entry in the test with Hepatitis B virus [2] (hepg2 2.2.15) and in the test on Hepatitis B virus [3] was “Not Active” in each case.

`Nc1ccn([C@@H]2CS[C@H](CO)O2)c(=O)n1` [LAMIVUDINE]: the CC50 in test [1] turned out to be 2180 µM. Besides, the IC50 in the test with Hepatitis B virus [2] (setting [7]) is 240 µM; in the test with Hepatitis B virus [3], “Not Active”. Also, the “Selectivity Index” value in test [6] is listed as 9.1.

In turn, `COc1cc2nc3c(cc2c(CN2CCOCC2)c1O)CSc1ccccc1-3` showed a CC50 in test [1] of 42.1 µM. In addition, the IC50 result in the test on Hepatitis B virus [2] (hepg2 2.2.15) and with Hepatitis B virus [3] was “Not Active” each time.

Consider `COc1cc2nc3c(cc2c(CN2CCOCC2)c1O)CSc1cc(C)ccc1-3`, for which, in test [1], the CC50 was determined as 262 µM. The IC50 entry with Hepatitis B virus [2] (hepg2 2.2.15) and in the test on Hepatitis B virus [3] was “Not Active” in each case.

The compound `COc1cc2nc3c(cc2c(CN(C)C)c1O)CSc1c(C)cc(C)cc1-3` returned a CC50 in test [1] of 32.4 µM. In addition, the IC50 with Hepatitis B virus [4] was 13.8 µM; in the test with Hepatitis B virus [2] (hepg2 2.2.15), “Not Active”. For the same compound, the “Selectivity Index” value in test [5] is recorded as 2.4.

Regarding `CCN(CC)Cc1c(O)c(OC)cc2nc3c(cc12)CSc1cc(F)ccc1-3`, the CC50 in test [1] came out at 20.7 µM. The IC50 is 2.4 µM with Hepatitis B virus [2] (setting [7]) and “Not Active” in the test on Hepatitis B virus [3]. For the same compound, in test [6], the “Selectivity Index” value turned out to be 8.7.

The compound `COc1cc2nc3c(cc2c(CN2CCCC2)c1O)CSc1ccc(C)cc1-3` registered a CC50 in test [1] of 146 µM. Besides, the IC50 is 56.3 µM with Hepatitis B virus [2] (setting [7]) and “Not Active” in the test with Hepatitis B virus [3]. Moreover, the “Selectivity Index” value in test [6] is reported as 2.6.

`COc1cc2nc3c(cc2c(CN2CCCC2)c1O)CSc1cc(F)ccc1-3`: the CC50 in test [1] was 566 µM. Moreover, the results for the IC50 in the test with Hepatitis B virus [2] (setting [7]) and with Hepatitis B virus [3] were 173 µM and “Not Active”, respectively. For the same compound, in test [6], the “Selectivity Index” value turned out to be 3.3.

On to `COc1cc2nc3c(cc2c(CN2CCCC2)c1O)CSc1ccc(F)cc1-3`, for which, in test [1], it took 435 µM to reach half-maximal cytotoxicity (CC50). For the same compound, the IC50 is 47.7 µM in the test on Hepatitis B virus [2] (setting [7]) and “Not Active” with Hepatitis B virus [3]. Further, in test [6], the “Selectivity Index” value stood at 9.1.

In test [1], `COc1cc2nc3c(cc2c(CN2CCCCC2)c1O)CSc1c(C)cc(C)cc1-3` came in with a CC50 of 21.9 µM. For the same compound, the IC50 with Hepatitis B virus [2] (setting [7]) was 4.2 µM; in the test with Hepatitis B virus [3] it was “Not Active”. Further, the “Selectivity Index” value in test [6] worked out at 5.3.

In test [1], `COc1cc2nc3c(cc2c(CN2CCN(C)CC2)c1O)CSc1ccccc1-3` had a CC50 of 25.2 µM. Further, the IC50 entry in the test on Hepatitis B virus [2] (hepg2 2.2.15) and in the test on Hepatitis B virus [3] was “Not Active” each time.

Take `COc1cc2nc3c(cc2c(CN2CCOCC2)c1O)CSc1ccc(C)cc1-3`: the CC50 in test [1] was 181 µM. In addition, the IC50 in the test with Hepatitis B virus [2] (setting [7]) is 14.7 µM; in the test on Hepatitis B virus [3], “Not Active”. The “Selectivity Index” value in test [6] is recorded as 12.4.

Take `CCN(CC)Cc1c(O)c(OC)cc2nc3c(cc12)CSc1ccc(C)cc1-3`: it took 12 µM to reach half-maximal cytotoxicity in test [1] (CC50). In addition, the figures for the IC50 in the test with Hepatitis B virus [2] (setting [7]) and in the test on Hepatitis B virus [3] were 2 µM and “Not Active”, respectively. In addition, in test [6], the “Selectivity Index” value came to 6.

In the case of `COc1cc2nc3c(cc2c(CN2CCN(C)CC2)c1O)CSc1ccc(C)cc1-3`, the CC50 in test [1] amounted to 527 µM. Moreover, the IC50 with Hepatitis B virus [2] (setting [7]) is 107 µM; with Hepatitis B virus [3] it was “Not Active”. The “Selectivity Index” value in test [6] stood at 4.9.

For the origin of these results see ChEMBL document CHEMBL1152943, “Synthesis and in vitro anti-hepatitis B virus activity of 6H-[1]benzothiopyrano[4,3-b]quinolin-9-ols” (Bioorg Med Chem, 2009).
